Where two headings read alike, the source gives them in different places.
Molecular target: T1, Human DGAT1 (Homo sapiens, UniProt O75907)
T1 construct: my translation of the primer: M-G-DYKDDDD-GDRGSSRRR) (N); made in house; host or cells: Sf9 insect cells (recombinant baculovirus BAC-DGAT1, pFASTBAC1); microsome fraction
T1 sequence (O75907 1-488): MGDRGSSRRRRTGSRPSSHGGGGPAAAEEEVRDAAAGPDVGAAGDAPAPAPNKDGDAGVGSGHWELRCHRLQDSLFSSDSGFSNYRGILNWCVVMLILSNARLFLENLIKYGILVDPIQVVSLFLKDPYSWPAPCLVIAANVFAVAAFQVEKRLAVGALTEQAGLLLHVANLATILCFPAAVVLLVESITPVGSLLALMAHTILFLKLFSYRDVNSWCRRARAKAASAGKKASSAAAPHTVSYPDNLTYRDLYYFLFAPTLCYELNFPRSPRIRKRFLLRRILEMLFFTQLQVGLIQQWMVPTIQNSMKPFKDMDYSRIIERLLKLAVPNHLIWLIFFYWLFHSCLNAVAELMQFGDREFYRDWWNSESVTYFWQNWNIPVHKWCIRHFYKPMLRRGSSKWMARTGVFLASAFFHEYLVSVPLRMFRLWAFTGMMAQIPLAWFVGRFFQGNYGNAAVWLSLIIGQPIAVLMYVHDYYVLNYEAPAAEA
Assay: DGAT inhibitory activity: [14C]-triglyceride synthesis by DGAT1 high expression Sf9 microsome
Format: biochemical
Settings: 25 μM [14C]-Oleoyl-CoA, 32° C., 15 min, read-out: DGAT inhibitory activity (according to IC50)
Procedure: The primer base sequence is shown below.
The PCR reaction was conducted using a KOD-plus kit (TOYOBO). The obtained PCR product was electrophoresed on agarose gel (1%), the DNA fragment amplified by PCR was recovered from the gel, and then digested with restriction enzymes EcoRI and SpeI. […] Furthermore, using BAC-TO-BAC Baculovirus Expression System (Invitrogen), recombinant baculovirus BAC-DGAT1 was prepared.
SF9 cells were sown at 1×10^6 cells/ml on Sf-900II SEM medium (1 L, Invitrogen) containing 10% fetal calf serum (Trace), 50 mg/L gentamicin (Invitrogen) and 0.1% Pluronic F-68 (Invitrogen), and shaking culture was performed using a 2 L volume Erlenmeyer at 27° C., 100 rpm. After culturing for 24 hr, recombinant baculovirus BAC-DGAT1 (6.7 mL) was added, and the mixture was further cultured for 3 days. The culture medium was centrifuged at 2,000 rpm for 5 min to give virus-infected cells. The infected cells were washed with a phosphate buffered saline (Invitrogen), centrifuged under the same conditions, and the cells were preserved at −80° C. The cryopreserved cells were thawed in ice, suspended in buffer A (50 mM Tris buffer (30 mL, pH 7.4) containing 20% glycerol, 0.15 M NaCl) supplemented with Complete Protease Inhibitor (Boehringer), and ruptured 3 times with a Polytron homogenizer (Kinematica) at 20,000 rpm for 30 sec. The Sf9 microsome fractions were obtained by a conventional method and cryopreserved at −80° C. as a DGAT1 high expression Sf9 microsome.
As a DGAT1 reaction buffer, a solution having a composition of 100 mM Tris-HCl (pH 7.5), 250 mM sucrose, 150 mM MgCl2, 0.01% bovine serum albumin (BSA) was used. […] A mixture of 300 μL of chloroform:methanol (=1:2) was added to the reaction mixture to quench the reaction. The reaction mixture was sufficiently mixed and saline (200 μL) was added to partition the mixture between a chloroform layer (lower layer) and an aqueous layer (upper layer). The chloroform layer (50 μL) was spotted on a thin layer chromatography silica gel plate (TLC plate, Merck) and developed with a solvent (n-hexane:diethyl ether:ethyl acetate:acetic acid=74:15:15:1). The developed TLC plate was dried, contacted with a BAS imaging plate (manufactured by FUJIFILM) and measured with BAS2500 (manufactured by FUJIFILM) 16 hr later to numerically show the amount of [^14C]-triglyceride (TG amount) produced during the reaction. The inhibitory rate was calculated by the following formula:
Inhibitory rate (%)=(1−(TG amount in the case with addition of test compound−blank TG amount)/(control TG amount−blank TG amount))×100
The count of the triglyceride produced in the solution reacted without addition of the test compound was used as a “control TG amount”, and the count of the triglyceride produced in the solution reacted without addition of the test compound and DGAT1 high expression Sf9 microsome was used as a “blank TG amount”.

[1] = Table 2, 25 μM dioleoylglycerol
[2] = Table 1, 25 μM dioleoylglycerol

| IC50 [1] | IC50 [2] | SMILES |
| --- | --- | --- |
| ≤ 10 nM |  | CCOc1ccc(C(=O)CCC(=O)Nc2cc(-c3ccc4[nH]ccc4c3)cc(-c3ccccc3)n2)cc1OCC [Example 121, 4-(3,4-diethoxyphenyl)-N-[4-(1H-indol-5-yl)-6-phenylpyridin-2-yl]-4-oxobutanamide] |
|  | ≤ 10 nM | CCOc1cccc(C(=O)CCC(=O)Nc2nc(-c3ccccc3)c(Cc3ccccc3)s2)c1 [Example 5, N-(5-benzyl-4-phenyl-1,3-thiazol-2-yl)-4-(3-ethoxyphenyl)-4-oxobutanamide] |
| 50 to 500 nM |  | CCCc1cc(C(=O)CCC(=O)Nc2cc(-c3ccccc3)c(Cc3ccccc3)s2)ccc1OCC [Example 97, N-(5-benzyl-4-phenyl-2-thienyl)-4-(4-ethoxy-3-propylphenyl)-4-oxobutanamide] |
| 500 to 10000 nM |  | Cc1ccc(C(=O)CCC(=O)Nc2cc(-c3ccccc3)cc(-c3ccccc3)n2)cc1C [Example 111, 4-(3,4-dimethylphenyl)-N-(4,6-diphenylpyridin-2-yl)-4-oxobutanamide] |
|  | 50 to 500 nM | CCOc1ccc(C(=O)CCC(=O)Nc2cn(Cc3ccccc3)nc2-c2ccccc2)cc1OCC [Example 20, N-(1-benzyl-3-phenyl-1H-pyrazol-4-yl)-4-(3,4-diethoxyphenyl)-4-oxobutanamide] |
| ≤ 10 nM |  | CCOc1ccc(C(=O)CCC(=O)Nc2cc(-c3ccc(O)cc3)cc(-c3ccccc3)n2)cc1OCC [Example 123, 4-(3,4-diethoxyphenyl)-N-[4-(4-hydroxyphenyl)-6-phenylpyridin-2-yl]-4-oxobutanamide] |
| 500 to 10000 nM |  | CCOc1ccc(C(=O)CCC(=O)Nc2cc(-c3cccn3C(=O)OC(C)(C)C)cc(-c3ccccc3)n2)cc1OCC [Example 118, tert-butyl 2-(2-{[4-(3,4-diethoxyphenyl)-4-oxobutanoyl]amino}-6-phenylpyridin-4-yl)-1H-pyrrole-1-carboxylate] |
| 50 to 500 nM |  | CCOc1ccc(C(=O)CCC(=O)Nc2cc(-c3ccc(OCCNC(=O)OC(C)(C)C)cc3)c3ccccc3n2)cc1OCC [Example 92, tert-butyl {2-[4-(2-{[4-(3,4-diethoxyphenyl)-4-oxobutanoyl]amino}quinolin-4-yl)phenoxy]ethyl}carbamate] |
| ≤ 10 nM |  | CCOc1ccc(C(=O)CCC(=O)Nc2cc(-c3ccccc3O)cc(-c3ccccc3)n2)cc1OCC [Example 145, 4-(3,4-diethoxyphenyl)-N-[4-(2-hydroxyphenyl)-6-phenylpyridin-2-yl]-4-oxobutanamide] |
| ≤ 10 nM |  | N#Cc1ccccc1-c1cc(NC(=O)CCC(=O)c2ccc3c(c2)CCO3)nc(-c2ccccc2)c1 [Example 176, N-[4-(2-cyanophenyl)-6-phenylpyridin-2-yl]-4-(2,3-dihydro-1-benzofuran-5-yl)-4-oxobutanamide] |
|  | 500 to 10000 nM | CCOc1ccc(C(=O)CCC(=O)Nc2cc(-c3ccccc3)sc2-c2ccccc2)cc1 [Example 60, N-(2,5-diphenyl-3-thienyl)-4-(4-ethoxyphenyl)-4-oxobutanamide] |
| 500 to 10000 nM |  | COc1cc(-c2cc(NC(=O)CCC(=O)c3ccc4c(c3)CCO4)nc(-c3ccccc3)c2)cc(OC)c1OC [Example 182, 4-(2,3-dihydro-1-benzofuran-5-yl)-4-oxo-N-[6-phenyl-4-(3,4,5-trimethoxyphenyl)pyridin-2-yl]butanamide] |
| 500 to 10000 nM |  | O=C(CCC(=O)c1ccc2c(c1)CCO2)Nc1cc(-c2ccc(N3CCOCC3)cc2)cc(-c2ccccc2)n1 [Example 160, 4-(2,3-dihydro-1-benzofuran-5-yl)-N-[4-(4-(morpholin-4-yl)phenyl)-6-phenylpyridin-2-yl]-4-oxobutanamide] |
|  | ≤ 10 nM | CCOc1ccc(C(=O)CCC(=O)Nc2nc(-c3ccccc3)c(Cc3ccccc3)s2)cc1Br [Example 25, N-(5-benzyl-4-phenyl-1,3-thiazol-2-yl)-4-(3-bromo-4-ethoxyphenyl)-4-oxobutanamide] |
|  | 50 to 500 nM | CCc1cc(C(=O)CCC(=O)Nc2cc(-c3ccccc3)c(Cc3ccccc3)s2)ccc1OC [Example 55, N-(5-benzyl-4-phenyl-2-thienyl)-4-(3-ethyl-4-methoxyphenyl)-4-oxobutanamide] |
| 10 to 50 nM |  | CCOc1ccc(C(=O)CCC(=O)Nc2cc(-c3ccc(O)c(OC)c3)cc(-c3ccccc3)n2)cc1OCC [Example 149, 4-(3,4-diethoxyphenyl)-N-[4-(4-hydroxy-3-methoxyphenyl)-6-phenylpyridin-2-yl]-4-oxobutanamide] |
| 50 to 500 nM |  | O=C(CCC(=O)c1ccc2c(c1)CCO2)Nc1cc(-c2ccccc2)cc(-c2ccccc2)n1 [Example 104, 4-(2,3-dihydro-1-benzofuran-5-yl)-N-(4,6-diphenylpyridin-2-yl)-4-oxobutanamide] |
| 50 to 500 nM |  | Cc1cc(-c2cc(NC(=O)CCC(=O)c3ccc4c(c3)CCO4)nc(-c3ccccc3)c2)cc(C)c1O [Example 183, 4-(2,3-dihydro-1-benzofuran-5-yl)-N-[4-(4-hydroxy-3,5-dimethylphenyl)-6-phenylpyridin-2-yl]-4-oxobutanamide] |
|  | 50 to 500 nM | CCOc1ccc(C(=O)CCC(=O)Nc2cc(-c3ccccc3)cc(-c3ccccc3)c2)cc1OCC [Example 8, 4-(3,4-diethoxyphenyl)-4-oxo-N-(1,1′:3′,1″-terphenyl-5′-yl)butanamide] |
| 50 to 500 nM |  | CCOc1ccc(C(=O)CCC(=O)Nc2cc(-c3ccc(C)cc3)c3cc(/C=C/C(=O)OC(C)(C)C)ccc3n2)cc1OCC [Example 78, tert-butyl (2E)-3-[2-{[4-(3,4-diethoxyphenyl)-4-oxobutanoyl]amino}-4-(4-methylphenyl)quinoline-6-yl]acrylate] |
| 10 to 50 nM |  | CCOc1ccc(C(=O)CCC(=O)Nc2cc(-c3cccc(CC#N)c3)cc(-c3ccccc3)n2)cc1OCC [Example 133, N-{4-[3-(cyanomethyl)phenyl]-6-phenylpyridin-2-yl}-4-(3,4-diethoxyphenyl)-4-oxobutanamide] |
|  | 10 to 50 nM | CCOc1ccc(C(=O)CCC(=O)Nc2cc(-c3ccccc3)c(Cc3ccc(Br)cc3)s2)cc1OCC [Example 47, N-[5-(4-bromobenzyl)-4-phenyl-2-thienyl]-4-(3,4-diethoxyphenyl)-4-oxobutanamide] |
| 500 to 10000 nM |  | CCOc1ccc(C(=O)CCC(=O)Nc2cc(-c3ccc(C(=O)O)cc3)cc(-c3ccccc3)n2)cc1OCC [Example 113, 4-(2-{[4-(3,4-diethoxyphenyl)-4-oxobutanoyl]amino}-6-phenylpyridin-4-yl)benzoic acid] |
|  | 50 to 500 nM | CCOc1ccc(C(=O)CCC(=O)Nc2cc(-c3ccccc3)sc2-c2ccccc2)cc1OCC [Example 18, 4-(3,4-diethoxyphenyl)-N-(2,5-diphenyl-3-thienyl)-4-oxobutanamide] |
|  | 50 to 500 nM | CCOc1cc(NC(=O)CCC(=O)c2ccc(OCC)c(OCC)c2)nc(-c2ccccc2)c1 [Example 40, 4-(3,4-diethoxyphenyl)-N-(4-ethoxy-6-phenylpyridin-2-yl)-4-oxobutanamide] |
| 50 to 500 nM |  | CCOc1ccc(C(=O)CCC(=O)Nc2cn(-c3ccccc3)nc2-c2ccc(F)cc2)cc1OCC [Example 108, 4-(3,4-diethoxyphenyl)-N-[3-(4-fluorophenyl)-1-phenyl-1H-pyrazol-4-yl]-4-oxobutanamide] |

| SMILES | IC50 [1] | IC50 [2] |
| --- | --- | --- |
| CCCCOCCOc1cc(NC(=O)CCC(=O)c2ccc(OCC)c(OCC)c2)nc(-c2ccccc2)c1 [Example 107, N-[4-(2-butoxyethoxy)-6-phenylpyridin-2-yl]-4-(3,4-diethoxyphenyl)-4-oxobutanamide] | 50 to 500 nM |  |

— patent US20090048258A1, “Amide Compound” (priority 2005, published 2009)
